These results are taken from ChEMBL document CHEMBL5357036, “Latest developments in coumarin-based anticancer agents: mechanism of action and structure-activity relationship studies” (RSC Med Chem, 2024).

≈ marks a conversion by molar mass, not a printed value. A value given as a limit tells only on which side of the number the result lay.

For experiment [1], the system named is MCF7. The experiment is described as follows: Cytotoxicity against human MCF7 cells assessed as cell growth inhibition after 48 hrs by MTT assay. Format: functional, cell-based. The following applies: MCF7, 48 h.
For experiment [2], the system named is MDA-MB-231. The experiment is described as follows: Antiproliferative activity against human MDA-MB-231 cells assessed as reduction in cell proliferation incubated for 72 hrs by CellTiter-Glo reagent based assay. Format: functional. The following applies: MDA-MB-231, 72 h.
Experiment [3] can be described thus: Antiproliferative activity against human H357 cells assessed as reduction in cell proliferation incubated for 72 hrs by CellTiter-Glo reagent based assay. Format: functional. To be noted: H357, 72 h.
Experiment [4] relates to MCF7. Nature of the experiment: Anticancer activity against human MCF7 cells after 48 hrs by SRB assay. Format: functional, cell-based. To be noted: MCF7, 48 h.
Experiment [5] can be described thus: Cytotoxicity against human HEK cells assessed as reduction in cell growth incubated for 5 days by MTT assay. The format is functional, cell-based. The following applies: HEK293, 120 h.
Experiment [6] has as its system MCF7. Nature of the experiment: Cytotoxicity against human MCF7 cells assessed as reduction in cell growth incubated for 5 days by MTT assay. The format is functional, cell-based. The following applies: MCF7, 120 h.
For experiment [7], the system named is HeLa. The experiment is described as follows: Growth inhibition of human HeLa cells incubated for 48 hrs by MTT assay. Format: functional.
In experiment [8] the test system is MCF7. Nature of the experiment: Anticancer activity against human MCF7 cells assessed as inhibition of cell proliferation measured after 48 hrs by MTT assay. To be noted: MCF7, 48 h. The format is functional, cell-based.
The test system of experiment [9] is MCF7-DOX. The experiment is described as follows: Antiproliferative activity against human MCF7-DOX cells assessed as reduction in cell viability incubated for 72 hrs by MTT assay. The format is functional, cell-based.
In experiment [10] the test system is SK-OV-3. The experiment is described as follows: Anticancer activity against human SK-OV-3 cells assessed as reduction in cell viability incubated for 24 hrs by MTT assay. Format: functional, cell-based. The following applies: SK-OV-3, 24 h.
Experiment [11] relates to MCF7. Nature of the experiment: Cytotoxicity against human MCF7 cells assessed as inhibition of cell proliferation incubated for 72 hrs by MTT assay. The format is functional, cell-based. To be noted: MCF7, 72 h.
Experiment [12] has as its system 4T1. The experiment is described as follows: Cytotoxicity against mouse 4T1 cells assessed as inhibition of cell proliferation incubated for 72 hrs by MTT assay. Format: functional, cell-based. The following applies: 4T1, 72 h.
For experiment [13], the system named is MCF7. The experiment is described as follows: Antiproliferative activity against human MCF7 cells assessed as reduction in cell viability incubated for 48 hrs by cell titer-glo assay. Format: functional, cell-based. The following applies: MCF7, 48 h.
The subject of experiment [14] is SK-OV-3. Nature of the experiment: Antiproliferative activity against human SK-OV-3 cells assessed as reduction in cell growth by SRB assay. The format is functional, cell-based.
Experiment [15] relates to K562. Nature of the experiment: Antiproliferative activity against human K562 cells assessed as cell growth inhibition. The format is functional, cell-based.
Experiment [16] deals with KE-37. The experiment is described as follows: Anticancer activity against human KE-37 cells assessed as reduction in cell viability. Format: functional, cell-based.
In experiment [17] the test system is MDA-MB-231. The experiment is described as follows: Antiproliferative activity against human MDA-MB-231 cells assessed as cell growth inhibition by SRB assay. Format: functional, cell-based.
In experiment [18] the test system is HL-60. The experiment is described as follows: Antiproliferative activity against human HL-60 cells assessed as cell growth inhibition measured after 72 hrs by trypan blue staining based assay. The format is functional. To be noted: HL-60, 72 h.
Experiment [19] relates to HeLa. The experiment is described as follows: Cytotoxicity against human HeLa cells assessed as cell growth inhibition. The format is functional, cell-based.
For experiment [20], the system named is HeLa. The experiment is described as follows: Anticancer activity against human HeLa cells assessed as inhibition of cell growth by SRB assay. Format: functional, cell-based.
Experiment [21] relates to SNB-75. Nature of the experiment: Antiproliferative activity against human SNB-75 cells assessed as cell growth inhibition at 10 uM by SRB assay relative to control. The format is functional.
The subject of experiment [22] is HeLa. Nature of the experiment: Cytotoxicity against human HeLa cells assessed as growth inhibition measured after 48 hrs by MTT assay. Format: functional, cell-based.
Experiment [23] deals with HepG2. The experiment is described as follows: Anticancer activity against human HepG2 cells assessed as reduction in cell viability by SRB assay. The format is functional, cell-based.
The subject of experiment [24] is DU-145. Nature of the experiment: Anticancer activity against human DU-145 cells assessed as reduction in cell viability by SRB assay. The format is functional, cell-based.
The test system of experiment [25] is MCF7. Nature of the experiment: Anticancer activity against human MCF7 cells assessed as reduction in cell viability by SRB assay. The format is functional, cell-based.
Experiment [26] concerns A549. Nature of the experiment: Anticancer activity against human A549 cells assessed as reduction in cell viability by SRB assay. Format: functional, cell-based.
The subject of experiment [27] is MCF7-DOX. The experiment is described as follows: Antiproliferative activity against human MCF7-DOX cells assessed as reduction in cell viability by SRB assay. Format: functional, cell-based.

With `COc1ccc(-c2cc(-c3cc4ccccc4oc3=O)nc(Cc3ccc(F)cc3)n2)cc1`, in experiment [1], the half-inhibitory concentration (IC50) was determined as 2.23 µM. For `C/C(=N\c1ccc(S(N)(=O)=O)cc1)c1cc2ccccc2oc1=O`, the figures for the IC50 in [2] and in experiment [3] were 7.78 µM and 8.68 µM, respectively. With `COc1ccc2nc(SCc3cc(=O)oc4ccc(C(C)(C)C)cc34)[nH]c2c1`, the IC50 in experiment [4] worked out at 0.18 µM.

Regarding `CC(c1cc2ccccc2oc1=O)(c1c[nH]c2ccc(Br)cc12)c1c[nH]c2ccc(Br)cc12`, the IC50 in experiment [5] was above 50 µM; in experiment [6], 21.2 µM. In the case of `O=c1cc(-c2nccc3c2[nH]c2ccccc23)c2cc(Cl)ccc2o1`, it took 23.4 µg/mL (≈ 67.5 µM) to inhibit growth in [7] by half (GI50). In the case of `Cc1cc(=O)oc2cc(OCCOCCOCCOCN3C(=O)/C(=N/O)c4cc(F)ccc43)ccc12`, the 50% inhibitory concentration (IC50) in experiment [8] turned out to be 11.9 µM; in experiment [9], 18.9 µM; in [10] it was 23.8 µM. With `O=C(Cc1cc(=O)oc2cc(O)ccc12)NCCCCCCCCCNc1c2c(nc3ccccc13)CCCC2`, the IC50 in experiment [11] was 6 µM; in experiment [12], 5.7 µM. For the compound `CCN(C)S(=O)(=O)c1ccc(/C(C)=N/NC(=O)c2cc3ccccc3oc2=O)cc1`, the 50% inhibitory concentration (IC50) in experiment [13] is 2.56 µM.

For the compound `Cc1cc(=O)oc2cc(OCCOCCN3C(=O)/C(=N/O)c4ccccc43)ccc12`, the IC50 in experiment [14] worked out at 18.6 µM. In the case of `O=C(N/N=C/c1c(Cl)c2ccccc2oc1=O)c1ccccc1`, the IC50 in [15] was 7.2 µM; in [16], 5.3 µM; in experiment [17] it was 9.1 µM; in experiment [18] it was 2.9 µM. Consider `CN(C)c1ccc2c(c1)O/C(=C(/C#N)c1cc[n+](C)cn1)C=C2C(F)(F)F`, for which, in experiment [19], the IC50 amounted to 1.1 µM. As for `Cc1cc(=O)oc2cc(OCCOCCN3C(=O)C(=O)c4cc(F)ccc43)ccc12`, in [20], the concentration for half-maximal inhibition (IC50) came out at 11.5 µM. On to `COc1cc2c3c(c(=O)oc2cc1OS(=O)(=O)c1ccc(C(F)(F)F)cc1)CCCCC3`, for which, in [21], the inhibition at 10 µM came out at 91.9%. With `CCCCOc1ccc2cc(C(=O)NNC(=O)c3c(C)oc4nc(NCCC)n(-c5ccc(C)cc5)c(=O)c34)c(=O)oc2c1`, the 50% inhibitory concentration (IC50) in [22] turned out to be 6.47 µM. Regarding `Cc1cc(=O)oc2cc(OCCOCCN3C(=O)/C(=N/O)c4cc(F)ccc43)ccc12`, the IC50 in [23] was found to be 10.3 µM; in experiment [24] it was 20.8 µM; in experiment [25], 11.3 µM; in experiment [26], 10.9 µM; in experiment [27], 14.5 µM.
